Experimental data taken from PubChem BioAssay (NCI).
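Tested at 5 concentrations; 48 h exposure; 96-well plates; endpoints linearly interpolated, else capped at highest concentration. TGI denotes the concentration required for complete inhibition of growth.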

Experiments:
Test in all cases: NCI anticancer screen, dose series, 48 h
HCT-15 colon = test system: HCT-15 colon
MOLT-4 leukemia = test system: MOLT-4 leukemia
CCRF-CEM leukemia = test system: CCRF-CEM leukemia
UACC-62 melanoma = test system: UACC-62 melanoma
PC-3 prostate = test system: PC-3 prostate
M14 melanoma = test system: M14 melanoma
CAKI-1 renal = test system: CAKI-1 renal
SK-MEL-28 melanoma = test system: SK-MEL-28 melanoma
DU-145 prostate = test system: DU-145 prostate
HCT-116 colon = test system: HCT-116 colon
NCI-H522 lung = test system: NCI-H522 lung
MCF7 breast = test system: MCF7 breast
OVCAR-5 ovarian = test system: OVCAR-5 ovarian
SW-620 colon = test system: SW-620 colon
NCI-H226 lung = test system: NCI-H226 lung
HOP-92 NSCLC = test system: HOP-92 NSCLC
MDA-MB-435 = test system: MDA-MB-435
A498 renal = test system: A498 renal
K-562 leukemia = test system: K-562 leukemia
SK-OV-3 ovarian = test system: SK-OV-3 ovarian
COLO 205 colon = test system: COLO 205 colon
BT-549 breast = test system: BT-549 breast
NCI-H23 lung = test system: NCI-H23 lung
SF-295 CNS = test system: SF-295 CNS
HS 578T breast = test system: HS 578T breast
UACC-257 melanoma = test system: UACC-257 melanoma
IGROV1 ovarian = test system: IGROV1 ovarian
SR leukemia = test system: SR leukemia
SK-MEL-5 melanoma = test system: SK-MEL-5 melanoma
SNB-75 CNS = test system: SNB-75 CNS
OVCAR-8 ovarian = test system: OVCAR-8 ovarian
OVCAR-4 ovarian = test system: OVCAR-4 ovarian
NCI/ADR-RES ovarian = test system: NCI/ADR-RES ovarian
KM12 colon = test system: KM12 colon
MALME-3M melanoma = test system: MALME-3M melanoma
LOX IMVI melanoma = test system: LOX IMVI melanoma
HCC-2998 colon = test system: HCC-2998 colon
NCI-H460 lung = test system: NCI-H460 lung
TK-10 renal = test system: TK-10 renal
MDA-N = test system: MDA-N
MDA-MB-231 breast = test system: MDA-MB-231 breast
T-47D breast = test system: T-47D breast
SN12C renal = test system: SN12C renal
SF-268 CNS = test system: SF-268 CNS
HOP-62 NSCLC = test system: HOP-62 NSCLC
SK-MEL-2 melanoma = test system: SK-MEL-2 melanoma
RXF 393 renal = test system: RXF 393 renal
U251 CNS = test system: U251 CNS
HL-60(TB) leukemia = test system: HL-60(TB) leukemia
ACHN renal = test system: ACHN renal
A549 NSCLC = test system: A549 NSCLC
786-0 renal = test system: 786-0 renal
SNB-19 CNS = test system: SNB-19 CNS
RPMI-8226 leukemia = test system: RPMI-8226 leukemia
EKVX NSCLC = test system: EKVX NSCLC
HT29 colon = test system: HT29 colon
OVCAR-3 ovarian = test system: OVCAR-3 ovarian
SF-539 CNS = test system: SF-539 CNS
UO-31 renal = test system: UO-31 renal
SNB-78 CNS = test system: SNB-78 CNS
DMS 114 small cell lung = test system: DMS 114 small cell lung
DMS 273 small cell lung = test system: DMS 273 small cell lung
HOP-18 NSCLC = test system: HOP-18 NSCLC
LXFL 529 NSCLC = test system: LXFL 529 NSCLC
M19-MEL melanoma = test system: M19-MEL melanoma
KM20L2 colon = test system: KM20L2 colon

## OC(C/C(=N\N=C(/CC(O)(C(F)(F)F)C(F)(F)F)c1ccccc1)c1ccccc1)(C(F)(F)F)C(F)(F)F
HCT-15 colon
  TGI: > 10 µM
MOLT-4 leukemia
  TGI: > 10 µM
CCRF-CEM leukemia
  TGI: > 10 µM
UACC-62 melanoma
  TGI: > 10 µM
PC-3 prostate
  TGI: > 10 µM
M14 melanoma
  TGI: > 10 µM
CAKI-1 renal
  TGI: > 10 µM
SK-MEL-28 melanoma
  TGI: > 10 µM
DU-145 prostate
  TGI: > 10 µM
HCT-116 colon
  TGI: > 10 µM
NCI-H522 lung
  TGI: > 10 µM
MCF7 breast
  TGI: > 10 µM
OVCAR-5 ovarian
  TGI: > 10 µM
SW-620 colon
  TGI: > 10 µM
NCI-H226 lung
  TGI: > 10 µM
HOP-92 NSCLC
  TGI: > 10 µM
MDA-MB-435
  TGI: > 10 µM
A498 renal
  TGI: > 10 µM
K-562 leukemia
  TGI: > 10 µM
SK-OV-3 ovarian
  TGI: > 10 µM
COLO 205 colon
  TGI: > 10 µM
BT-549 breast
  TGI: > 10 µM
NCI-H23 lung
  TGI: > 10 µM
SF-295 CNS
  TGI: > 10 µM
HS 578T breast
  TGI: > 10 µM
UACC-257 melanoma
  TGI: > 10 µM
IGROV1 ovarian
  TGI: > 10 µM
SR leukemia
  TGI: > 10 µM
SK-MEL-5 melanoma
  TGI: > 10 µM
SNB-75 CNS
  TGI: > 10 µM
OVCAR-8 ovarian
  TGI: > 10 µM
OVCAR-4 ovarian
  TGI: > 10 µM
NCI/ADR-RES ovarian
  TGI: > 10 µM
KM12 colon
  TGI: > 10 µM
MALME-3M melanoma
  TGI: > 10 µM
LOX IMVI melanoma
  TGI: > 10 µM
HCC-2998 colon
  TGI: > 10 µM
NCI-H460 lung
  TGI: > 10 µM
TK-10 renal
  TGI: > 10 µM
MDA-N
  TGI: > 10 µM
MDA-MB-231 breast
  TGI: > 10 µM
T-47D breast
  TGI: > 10 µM
SN12C renal
  TGI: > 10 µM
SF-268 CNS
  TGI: > 10 µM
HOP-62 NSCLC
  TGI: > 10 µM
SK-MEL-2 melanoma
  TGI: > 10 µM
RXF 393 renal
  TGI: > 10 µM
U251 CNS
  TGI: > 10 µM
HL-60(TB) leukemia
  TGI: > 10 µM
ACHN renal
  TGI: > 10 µM
A549 NSCLC
  TGI: > 10 µM
786-0 renal
  TGI: > 10 µM
SNB-19 CNS
  TGI: > 10 µM
RPMI-8226 leukemia
  TGI: > 10 µM
EKVX NSCLC
  TGI: > 10 µM
HT29 colon
  TGI: > 10 µM
OVCAR-3 ovarian
  TGI: > 10 µM
SF-539 CNS
  TGI: > 10 µM

## CC(=O)N1C2=CCCC2(C)c2ccccc21 (configuration not stated)
HCT-15 colon
  TGI: > 100 µM
MOLT-4 leukemia
  TGI: > 100 µM
CCRF-CEM leukemia
  TGI: > 100 µM
UACC-62 melanoma
  TGI: > 100 µM
PC-3 prostate
  TGI: > 100 µM
M14 melanoma
  TGI: > 100 µM
CAKI-1 renal
  TGI: > 100 µM
SK-MEL-28 melanoma
  TGI: > 100 µM
DU-145 prostate
  TGI: > 100 µM
HCT-116 colon
  TGI: > 100 µM
NCI-H522 lung
  TGI: 94.8 µM
MCF7 breast
  TGI: > 100 µM
OVCAR-5 ovarian
  TGI: > 100 µM
SW-620 colon
  TGI: > 100 µM
NCI-H226 lung
  TGI: > 100 µM
HOP-92 NSCLC
  TGI: > 100 µM
MDA-MB-435
  TGI: > 100 µM
A498 renal
  TGI: > 100 µM
K-562 leukemia
  TGI: > 100 µM
SK-OV-3 ovarian
  TGI: > 100 µM
COLO 205 colon
  TGI: > 100 µM
BT-549 breast
  TGI: > 100 µM
NCI-H23 lung
  TGI: > 100 µM
SF-295 CNS
  TGI: > 100 µM
HS 578T breast
  TGI: > 100 µM
UACC-257 melanoma
  TGI: > 100 µM
IGROV1 ovarian
  TGI: > 100 µM
SR leukemia
  TGI: > 100 µM
SK-MEL-5 melanoma
  TGI: > 100 µM
SNB-75 CNS
  TGI: > 100 µM
OVCAR-8 ovarian
  TGI: > 100 µM
OVCAR-4 ovarian
  TGI: > 100 µM
NCI/ADR-RES ovarian
  TGI: > 100 µM
KM12 colon
  TGI: > 100 µM
MALME-3M melanoma
  TGI: > 100 µM
LOX IMVI melanoma
  TGI: > 100 µM
HCC-2998 colon
  TGI: 99.7 µM
NCI-H460 lung
  TGI: > 100 µM
TK-10 renal
  TGI: > 100 µM
MDA-N
  TGI: > 100 µM
MDA-MB-231 breast
  TGI: > 100 µM
T-47D breast
  TGI: > 100 µM
SN12C renal
  TGI: > 100 µM
UO-31 renal
  TGI: > 100 µM
SF-268 CNS
  TGI: > 100 µM
HOP-62 NSCLC
  TGI: > 100 µM
SK-MEL-2 melanoma
  TGI: > 100 µM
RXF 393 renal
  TGI: > 100 µM
U251 CNS
  TGI: > 100 µM
HL-60(TB) leukemia
  TGI: 83.6 µM
ACHN renal
  TGI: > 100 µM
A549 NSCLC
  TGI: > 100 µM
786-0 renal
  TGI: > 100 µM
SNB-19 CNS
  TGI: > 100 µM
RPMI-8226 leukemia
  TGI: 45.6 µM
EKVX NSCLC
  TGI: > 100 µM
HT29 colon
  TGI: > 100 µM
OVCAR-3 ovarian
  TGI: > 100 µM
SF-539 CNS
  TGI: > 100 µM

## COC(=O)C(CC(=O)Nc1ccc(Cl)c(Cl)c1)C(=O)C(=O)NC1C2CC3CC(C2)CC1C3 (configuration not stated)
HCT-15 colon
  TGI: > 100 µM
MOLT-4 leukemia
  TGI: > 100 µM
CCRF-CEM leukemia
  TGI: > 100 µM
UACC-62 melanoma
  TGI: > 100 µM
M14 melanoma
  TGI: > 100 µM
CAKI-1 renal
  TGI: > 100 µM
SK-MEL-28 melanoma
  TGI: > 100 µM
HCT-116 colon
  TGI: > 100 µM
NCI-H522 lung
  TGI: > 100 µM
SNB-78 CNS
  TGI: > 100 µM
OVCAR-5 ovarian
  TGI: > 100 µM
SW-620 colon
  TGI: > 100 µM
NCI-H226 lung
  TGI: > 100 µM
HOP-92 NSCLC
  TGI: > 100 µM
A498 renal
  TGI: > 100 µM
K-562 leukemia
  TGI: > 100 µM
SK-OV-3 ovarian
  TGI: > 100 µM
COLO 205 colon
  TGI: > 100 µM
NCI-H23 lung
  TGI: > 100 µM
SF-295 CNS
  TGI: > 100 µM
DMS 114 small cell lung
  TGI: > 100 µM
UACC-257 melanoma
  TGI: > 100 µM
IGROV1 ovarian
  TGI: > 100 µM
SR leukemia
  TGI: > 100 µM
SK-MEL-5 melanoma
  TGI: > 100 µM
OVCAR-8 ovarian
  TGI: > 100 µM
OVCAR-4 ovarian
  TGI: > 100 µM
DMS 273 small cell lung
  TGI: > 100 µM
KM12 colon
  TGI: > 100 µM
MALME-3M melanoma
  TGI: > 100 µM
LOX IMVI melanoma
  TGI: > 100 µM
HCC-2998 colon
  TGI: > 100 µM
NCI-H460 lung
  TGI: > 100 µM
TK-10 renal
  TGI: > 100 µM
SN12C renal
  TGI: > 100 µM
HOP-18 NSCLC
  TGI: > 100 µM
UO-31 renal
  TGI: > 100 µM
SF-268 CNS
  TGI: > 100 µM
HOP-62 NSCLC
  TGI: > 100 µM
LXFL 529 NSCLC
  TGI: > 100 µM
SK-MEL-2 melanoma
  TGI: > 100 µM
RXF 393 renal
  TGI: > 100 µM
U251 CNS
  TGI: > 100 µM
M19-MEL melanoma
  TGI: > 100 µM
HL-60(TB) leukemia
  TGI: > 100 µM
ACHN renal
  TGI: > 100 µM
A549 NSCLC
  TGI: > 100 µM
KM20L2 colon
  TGI: > 100 µM
786-0 renal
  TGI: > 100 µM
SNB-19 CNS
  TGI: > 100 µM
RPMI-8226 leukemia
  TGI: > 100 µM
EKVX NSCLC
  TGI: > 100 µM
HT29 colon
  TGI: > 100 µM
OVCAR-3 ovarian
  TGI: > 100 µM
SF-539 CNS
  TGI: > 100 µM
